The values that follow come from BindingDB's records for doi:10.1124/jpet.105.087809 (Universit&Aagrove, 2005).

The target in assay [1] is T1, Alpha-1A adrenergic receptor (Homo sapiens, UniProt P35348).
T1 sequence (P35348 whole entry): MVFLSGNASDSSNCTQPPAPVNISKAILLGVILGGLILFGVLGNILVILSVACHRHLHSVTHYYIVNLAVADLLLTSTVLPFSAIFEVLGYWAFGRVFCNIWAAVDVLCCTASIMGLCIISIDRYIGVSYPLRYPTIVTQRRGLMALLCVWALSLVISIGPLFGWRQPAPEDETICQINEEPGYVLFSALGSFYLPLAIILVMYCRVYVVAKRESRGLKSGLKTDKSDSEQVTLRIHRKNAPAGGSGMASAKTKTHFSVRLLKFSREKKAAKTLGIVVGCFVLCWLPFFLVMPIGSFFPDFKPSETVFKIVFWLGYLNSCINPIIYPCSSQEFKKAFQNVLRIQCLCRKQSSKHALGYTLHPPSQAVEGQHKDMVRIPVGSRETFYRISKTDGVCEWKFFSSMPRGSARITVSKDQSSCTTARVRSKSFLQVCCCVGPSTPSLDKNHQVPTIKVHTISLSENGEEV

For assay [2], the target named is T2, Alpha-1D adrenergic receptor (Homo sapiens, UniProt P25100).
T2 sequence (P25100 whole entry): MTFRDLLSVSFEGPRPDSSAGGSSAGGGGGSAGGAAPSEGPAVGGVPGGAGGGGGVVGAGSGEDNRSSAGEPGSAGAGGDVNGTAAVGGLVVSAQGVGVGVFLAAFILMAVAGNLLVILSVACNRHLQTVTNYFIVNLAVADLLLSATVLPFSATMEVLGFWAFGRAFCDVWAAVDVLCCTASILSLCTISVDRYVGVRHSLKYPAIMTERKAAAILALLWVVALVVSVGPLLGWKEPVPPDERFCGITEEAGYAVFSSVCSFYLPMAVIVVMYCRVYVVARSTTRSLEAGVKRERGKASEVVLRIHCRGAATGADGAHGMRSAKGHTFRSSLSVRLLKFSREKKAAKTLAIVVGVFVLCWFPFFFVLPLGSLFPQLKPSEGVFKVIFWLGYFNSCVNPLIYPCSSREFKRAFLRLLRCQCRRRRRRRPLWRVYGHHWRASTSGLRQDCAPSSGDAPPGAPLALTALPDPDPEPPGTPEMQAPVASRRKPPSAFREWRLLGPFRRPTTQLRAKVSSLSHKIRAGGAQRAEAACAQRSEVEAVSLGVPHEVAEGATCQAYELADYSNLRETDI

The next assay addresses D(2) dopamine receptor (Rattus norvegicus, UniProt P61169).
Assay [3] addresses T3, Alpha-1B adrenergic receptor (Homo sapiens, UniProt P35368).
T3 sequence (P35368 whole entry): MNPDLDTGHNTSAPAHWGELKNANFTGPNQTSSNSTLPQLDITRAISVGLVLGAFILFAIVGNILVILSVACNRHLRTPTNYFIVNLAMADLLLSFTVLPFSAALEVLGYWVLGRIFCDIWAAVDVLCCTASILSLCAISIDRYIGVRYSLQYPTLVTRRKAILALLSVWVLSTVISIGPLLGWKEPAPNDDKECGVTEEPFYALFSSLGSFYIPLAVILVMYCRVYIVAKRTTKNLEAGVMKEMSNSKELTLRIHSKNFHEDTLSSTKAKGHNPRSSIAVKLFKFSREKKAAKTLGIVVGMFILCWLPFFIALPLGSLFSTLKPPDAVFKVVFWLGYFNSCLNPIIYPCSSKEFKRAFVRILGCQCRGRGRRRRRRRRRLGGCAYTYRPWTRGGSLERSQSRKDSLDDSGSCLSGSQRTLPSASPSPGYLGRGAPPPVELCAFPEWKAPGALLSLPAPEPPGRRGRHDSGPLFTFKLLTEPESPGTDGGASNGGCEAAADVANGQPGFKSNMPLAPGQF

For assay [4], the target named is T4, Alpha-2C adrenergic receptor (Rattus norvegicus, UniProt P22086).
T4 sequence (P22086 whole entry): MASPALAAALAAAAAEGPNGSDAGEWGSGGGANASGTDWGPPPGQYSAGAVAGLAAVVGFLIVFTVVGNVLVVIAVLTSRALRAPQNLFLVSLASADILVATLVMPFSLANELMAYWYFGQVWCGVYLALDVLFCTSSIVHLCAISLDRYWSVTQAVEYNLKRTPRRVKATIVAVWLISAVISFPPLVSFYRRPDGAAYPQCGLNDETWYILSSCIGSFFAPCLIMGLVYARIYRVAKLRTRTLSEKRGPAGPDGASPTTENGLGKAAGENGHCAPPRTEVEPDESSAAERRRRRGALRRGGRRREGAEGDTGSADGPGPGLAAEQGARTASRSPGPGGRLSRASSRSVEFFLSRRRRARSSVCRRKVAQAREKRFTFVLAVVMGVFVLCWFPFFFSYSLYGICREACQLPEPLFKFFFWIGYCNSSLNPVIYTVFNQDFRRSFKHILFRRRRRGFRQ

Assay [5] has as its target T5, 5-hydroxytryptamine receptor 1A (Homo sapiens, UniProt P08908).
T5 sequence (P08908 whole entry): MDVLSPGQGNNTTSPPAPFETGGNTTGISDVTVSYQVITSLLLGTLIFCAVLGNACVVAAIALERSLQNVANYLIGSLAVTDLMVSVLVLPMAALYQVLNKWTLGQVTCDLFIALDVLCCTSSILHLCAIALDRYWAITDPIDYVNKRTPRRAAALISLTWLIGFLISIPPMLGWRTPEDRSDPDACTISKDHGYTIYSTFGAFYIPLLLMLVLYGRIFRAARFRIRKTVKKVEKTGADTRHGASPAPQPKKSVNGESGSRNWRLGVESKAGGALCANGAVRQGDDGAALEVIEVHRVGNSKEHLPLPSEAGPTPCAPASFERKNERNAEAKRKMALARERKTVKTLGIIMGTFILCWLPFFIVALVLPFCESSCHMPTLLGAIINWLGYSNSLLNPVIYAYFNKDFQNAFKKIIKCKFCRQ

Chain of D(2) dopamine receptor (P61169 whole entry): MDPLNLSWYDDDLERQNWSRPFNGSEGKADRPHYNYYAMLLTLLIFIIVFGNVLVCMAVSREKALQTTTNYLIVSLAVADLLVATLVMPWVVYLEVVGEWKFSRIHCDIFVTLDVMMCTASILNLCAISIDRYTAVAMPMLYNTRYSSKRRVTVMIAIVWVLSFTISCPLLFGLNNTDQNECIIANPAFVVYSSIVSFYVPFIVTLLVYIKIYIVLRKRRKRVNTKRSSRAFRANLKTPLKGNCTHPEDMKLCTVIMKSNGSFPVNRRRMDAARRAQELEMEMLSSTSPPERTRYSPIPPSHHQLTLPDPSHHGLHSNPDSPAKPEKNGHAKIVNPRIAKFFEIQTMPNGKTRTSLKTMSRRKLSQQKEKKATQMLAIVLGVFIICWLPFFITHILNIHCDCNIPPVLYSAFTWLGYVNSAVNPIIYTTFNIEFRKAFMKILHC

For `O=C(CCCN1CCC2(CC1)C(=O)NCN2c1ccccc1)c1ccc(F)cc1` [8-[4-(4-fluorophenyl)-4-oxidanylidene-butyl]-1-phenyl-1,3,8-triazaspiro[4.5]decan-4-one], the Ki in assay [1] worked out at 20.4 nM; in assay [2], 8.32 nM.
In the case of `COc1ccccc1N1CCN(CCN(C(=O)C2CCCCC2)c2ccccn2)CC1`, the Ki at D(2) dopamine receptor turned out to be 347 nM; in assay [3], 661 nM; in assay [4], 1260 nM.
For `COc1ccccc1N1CCN(CCN(C(=O)C2CCCCC2)c2ccccc2OC)CC1` [Rec 27/0074], the Ki in assay [5] is 0.89 nM; at D(2) dopamine receptor, 316 nM; in assay [1] it was 5.13 nM; in assay [3], 1.02 nM; in assay [2], 4.17 nM; in assay [4], greater than 10000 nM.
Turning to `COc1ccccc1N1CCN(CCN(C(=O)C2CCCCC2)c2ccccc2[N+](=O)[O-])CC1` [N-[2-[4-(2-methoxyphenyl)-1-piperazinyl]-ethyl]-N-(2-nitrophenyl)cyclohexanecarboxamide], the values for the Ki (at D(2) dopamine receptor; in assay [4]) were 871 nM and greater than 10000 nM, respectively.
In the case of `COc1ccc(Br)c(N2CCN(CCN(C(=O)C3CCCCC3)c3ccccc3OC(F)(F)F)CC2)c1` [Rec 27/0224], the Ki in assay [5] was 1.05 nM; on D(2) dopamine receptor, 4790 nM; in assay [1], 224 nM; in assay [3], 646 nM; in assay [2] it was 724 nM; in assay [4] it was greater than 10000 nM.
